Data as given in US11564913B2, “Compositions and methods for treating cancer” (Children's Hospital Medical Center, priority 2019, dated 2023).

Key:
[1] = tested on: p190- and p210-BCR-ABL1 expressing Ba/F3 cells; assay: Cell survival, trypan blue exclusion; format: cell-based, murine; details: Mus musculus, BaF3; read-out: half maximal effective concentration (EC50), survival
Method: (B) IODVA1-dependent survival curves of empty vector (red circles) or p190-BCR-ABL1 (black circles) expressing Ba/F3 cells and of Nalm-1 cells. […] (C) p190-BCR-ABL1 (grey line) or Mieg3 (black line) expressing Ba/F3 cells were allowed to grow for 1 day, treated with IODVA1 (IO1, 1 μM) for 1 day, and washed (black arrow). Cells were counted for 7 days using trypan blue exclusion. (D) Ba/F3 cells stably expressing p190-BCR-ABL1 were subjected to colony formation assay in soft agar (0.25% Noble Agar in RPMI/FBS/IL-3) in the presence of DMSO or IODVA1 (1 or 10 μM). Colonies were allowed to form for 10 days then stained with iodonitrotetrazolium (1 mg/mL). […] (E) Leukemic burden (%) of treated mice before treatment (left upper panel) and at the indicated treatment time was analyzed by flow cytometry of bone marrow aspirates as population containing B220^+/CD43^+ pro-B cells. […]
IODVA1 specifically targets BCR-ABL B-ALL cells in vitro. […] We then assessed survival of p190-BCR-ABL-transformed CD34^+ cells in the presence of IODVA1 by trypan blue exclusion. […]
MDA-MB-231 cells were maintained in IMEM (Invitrogen) supplemented with 10% FBS, 1% penicillin/streptomycin, and 1% amphotericin B. B a/F3 cells were cultured in RPMI (GIBCO) supplemented with 10% FBS and IL-3 (10 ng/ml). […] Cell viability was assessed by trypan blue exclusion assay as previously described. […]

[2] = tested on: MDA-MB-231 cells expressing scrambled shRNA; assay: Viability and proliferation, trypan blue exclusion; format: cell-based, human; details: 0.1-1 μM
[3] = tested on: MDA-MB-231 cells expressing shVav3; assay: Viability and proliferation, trypan blue exclusion; format: cell-based, human; details: 0.1-1 μM
Method: FIG. 16: IODVA1 decreases levels of pVav3 in in vitro and in vivo models of triple negative breast cancer. (A) Immunoblot and quantification of Vav3 protein in lysates of MDA-MB-231 triple negative breast cancer cells stably expressing scrambled or Vav3-targeting shRNAs. Viability of the MDA-MB-231 cells stably expressing shVav3 in the presence of IODVA1 (0-1 μM). Cells were grown in the presence of IODVA1 and counted by trypan blue exclusion at the indicated time points. (B) MDA-MB-231 cells were incubated with IODVA1 (3 μM) for 15 min and the levels of phosphorylated Vav3 (pY173) were assessed by immunoblotting. (C) Immunohistochemical staining of phosphorylated Vav3 in tissue derived from MDA-MB-231 xenografts treated with vehicle control or IODVA1.
Next, we tested if IODVA1 is effective in another model of Vav3-dependent cancer. We chose MDA-MB-231 triple negative breast cancer cells because these cells express high endogenous levels of Vav3 (Chen, 2015) and because Vav3 is an acknowledged target in breast cancer (Chen, 2015; Lee, 2008; Aguilar, 2014; Citterio, 2012; Lorenzo-Martin. 2019). […] Second, we incubated MDA-MB-231 cells with IODVA1 (3 μM) for 15 min and analyzed the levels of phosphorylated Vav3 (pY173) by immunoblotting. […]

## OC1(c2ccccn2)N=C(Nc2nc3ccccc3[nH]2)N=C1c1ccccn1 (stereo not drawn) [IODVA1, (Z)-2-((1H-benzo[d]imidazol-2-yl)imino)-4,5-di(pyridin-2-yl)-2,5-dihydro-1H-imidazol-5-ol]
[1]
  EC50: 380 nM
[2]
  viability and proliferation: reduces, in a dose-dependent manner
[3]
  viability and proliferation: no effect
